In the test the target is T1, HIV-1 protease (Human immunodeficiency virus type 1 group M subtype B, UniProt P04585).
T1 construct: Purified HIV-1 protease was obtained as described below; made in house; host or cells: E. coli K12 L507/pHP10D (NRRL B-18560)
In words: biochemical. The following applies: for IC50: read-out: Fluorescence Assay IC50 (converted). As for the experimental part: N^α -Biotin-[…]Ne-FITC)-OH
The purified peptide was labeled as follows with a fluorescent marker at the C-terminal end for use in the assay. N^α -Biotin-Gly-Ser-Gln-Asn-Tyr-Pro-lle-Val-Gly-Lys-OH (1.206 g, 0.936 mmoles) was dissolved in 100 mL of 0.1M sodium borate, pH 9.5 with stirring. Then, 3 g of fluorescein isothiocyanate (7.7 mmol) was dissolved in 15 mL dimethyl sulfoxide and the solution added to the reaction in 10 equal portions over the course of a two hour period. The reaction was allowed to proceed for a further one hour after the final addition had been made. The pH of the solution was adjusted to 3 with 5N HCl. A precipitate formed which was removed from the reaction by centrifugation.
Fluorescence HIV-1 Protease Inhibitor Assay Procedure.
To each well of a round bottom, 96-well plate is added 20 μl of the Enzyme Solution followed by 10 μl of the compound to be evaluated in 20% aqueous DMSO. Purified HIV-1 protease was obtained as described below. The solution is incubated for one hour at room temperature and then 20 μl of a solution of the substrate N^α -Biotin-[…]N^e -FITC)-OH, in MES-ALB buffer (1.5 μl/ml) is added to each well. The solutions are incubated for 16 hours at room temperature and thereafter to each well is added 150 μl of MES-ALB buffer.
To each well of a 96-well Pandex plate is added 25 μl of the Avidin Coated Beads Solution. Next, 25 μl of the diluted incubation solutions, described above, are added to each well of the Pandex plate. The solutions are mixed well and the plates are loaded into a Pandex® machine, washed, evacuated and read. Sample detection was performed by excitation at 485 nm and reading the resulting epifluorescence at 535 nm.
A culture of E. coli K12 L507/pHP10D was grown to mid-log phase at 32° C. in LB media containing 12.5 μg/ml tetracycline. The cultivation temperature was quickly elevated to 40° C. to induce gene expression, and the cells were allowed to grow for 2.5 hours at this temperature before the culture was quickly chilled on ice. The cells were centrifuged and the cell pellet was resuspended in 20 ml 50 mmol MES buffer (pH 6.0) containing 1 mmol EDTA, 1 mmol DTT, 1 mmol PMSF, and 10% glycerol (Buffer A). Cells were lysed by sonication using a Fischer Model 300 Dismembrator and a microtip probe. […] Enzymatic activity was measured by HPLC using the synthetic peptide SQNYPIV as described in Margolin et al., Biochem. Biophys. Res. Commun., 167, 554-560 (1990); the production of the pl peptide (SQNY) was measured.
Active fractions were pooled, made 1.2M in ammonium sulfate, and applied to a hexyl agarose column (2.0×18 cm) equilibrated in Buffer A containing 1.2M ammonium sulfate. The sample, in 125 ml (1.85 mg/ml), was loaded at a flow rate of 1 ml/min at 4° C. […] The column was then washed isocratically in Buffer A for 120 min. Active fractions were pooled, concentrated to 10 ml using an Amicon stirred cell with a YM-10 membrane, and applied at 1 ml/min to a MonoS cation exchange column (1.0×10 cm) equilibrated in Buffer A. After washing isocratically for 30 min, protease was eluted using a linear gradient of 0-0.45M NaCl in Buffer A over 40 min followed by an isocratic wash with Buffer A containing 0.45M NaCl over 30 min. Chromatography was performed at 25° C.
Pooled active fractions were concentrated to 200 ul using an Amicon stirred cell and a YM-10 membrane, and the protease was then applied to a Superose 6 size exclusion column equilibrated in Buffer A containing 0.1M NaCl. The column was washed isocratically in this buffer at a flow rate of 0.5 ml/min.

[1] abbreviates: purified HIV-1 protease, MES-ALB buffer pH 5.5, 1 h preincubation, 16 h with substrate, room temperature, IC50 values for Examples 2-70 are standardized relative to Ex 1.

Where two headings read alike, the source gives them in different places.

Results on 16 compounds are retold here after patent publication US5719287A, “Intermediates for inhibitors of HIV protease and method of preparation thereof” (Eli Lilly and Company, priority 1995, dated 1998).

As usually defined, the IC50 is the concentration at which inhibition is half-maximal.

As to `CC(C)(C)NC(=O)c1ccccc1C[C@@H](O)[C@H](Cc1ccccc1)NC(=O)[C@H](CC(N)=O)NC(=O)c1ccc2ccccc2[n+]1[O-]` [Example 7, [1S-(1R*, 4R*, 5S*)]-N-(1-(2-amino-2-oxoethyl)-2-oxo-3-aza-4-phenylmethyl-5-hydroxy-6-(2-(1-t-butylamino-1-oxomethyl)phenyl)hexyl)-1-oxo-2-quinolinyl carboxamide], the half-inhibitory concentration (IC50) was 28.8 nM.

On to `CC(C)(C)NC(=O)c1ccccc1CC(O)C(Cc1ccccc1)NC(=O)C(CC(N)=O)NC(=O)c1cccc2cccnc12` (stereo not drawn) [Example 61, [1S-(1R*, 4R*, 5S*)]-N-(1-(2-amino-2-oxoethyl)-2-oxo-3-aza-4-phenylmethyl-5-hydroxy-6-(2-(1-t-butylamino-1-oxomethyl)phenyl)hexyl)-8-quinolinyl carboxamide], for which the “Fluorescence Assay IC50” value under setting [1] came out at 1.3 ng/mL.

In the case of `COc1cc(C(=O)N[C@@H](CC(N)=O)C(=O)N[C@@H](Cc2ccccc2)[C@H](O)Cc2ccccc2C(=O)NC(C)(C)C)nc2ccccc12` [Example 64, [1S-(1R*, 4R*, 5S*) ]-N-(1-(2-amino-2-oxoethyl)-2-oxo-3-aza-4-phenylmethyl-5-hydroxy-6-(2-(1-t-butylamino-1-oxomethyl)phenyl)hexyl)-4-methoxyquinolin-2-yl carboxamide], the half-inhibitory concentration (IC50) was 0.782 nM.

As to `CC(C)(C)NC(=O)c1ccccc1C[C@@H](O)[C@H](Cc1ccccc1)NC(=O)[C@H](CC(=O)NCc1c[nH]c2ccccc12)NC(=O)c1ccc2ccccc2n1` [Example 70, [1S-(1R*, 4R*, 5*)]-N-(1-(2-(N-indol-3-ylmethyl)amino)-2-oxoethyl)-2-oxo-3-aza-4-phenylmethyl-5-hydroxy-6-(2-(1-t-butylamino-1-oxomethyl)phenyl)hexyl)-2-quinolinyl carboxamide], the concentration for half-maximal inhibition (IC50) was 0.785 nM.

With `CC(C)(C)NC(=O)c1ccccc1C[C@@H](O)[C@H](Cc1ccccc1)NC(=O)[C@H](CC(N)=O)NC(=O)c1ccccn1` [Example 29, [1S-(1R*, 4R*, 5S*)]-N-(1-(2-amino-2-oxoethyl)-2-oxo-3-aza-4-phenylmethyl-5-hydroxy-6-(2-(1-t-butylamino-1-oxomethyl)phenyl)hexyl)-2-pyridyl carboxamide], the IC50 was 129 nM.

In the case of `CC(C)(C)NC(=O)c1ccccc1C[C@@H](O)[C@H](Cc1ccccc1)NC(=O)[C@H](CC(N)=O)NC(=O)NCc1ccccc1` [Example 57, [2R-(2R*, 3S*, 6S*)]-N-t-butyl-2-(2-hydroxy-3-phenylmethyl-4-aza-5-oxo-6-(2-amino-2-oxoethyl)-7-aza-8-oxo-8-(N-benzylamino)octyl)benzamide], the 50% inhibitory concentration (IC50) is 16.5 nM.

As for `CC(C)(C)NC(=O)c1ccccc1C[C@@H](O)[C@H](Cc1ccccc1)NC(=O)[C@H](CC(N)=O)NC(=O)c1ccc2cccc(F)c2n1` [Example 52, [1S-(1R*, 4R*, 5S*)]-N-(1-(2-amino-2-oxoethyl)-2-oxo-3-aza-4-phenylmethyl-5-hydroxy-6-(2-(1-t-butylamino-1-oxomethyl)phenyl)hexyl)-8-fluoroquinolin-2-yl carboxamide], the IC50 was 4.62 nM.

As to `CC(C)(C)NC(=O)c1ccccc1C[C@@H](O)[C@H](Cc1ccccc1)NC(=O)[C@H](CC(N)=O)NC(=O)c1cc2ccccc2cn1` [Example 30, [1S-(1R*, 4R*, 5S*)]-N-(1-(2-amino-2-oxoethyl)-2-oxo-3-aza-4-phenylmethyl-5-hydroxy-6-(2-(1-t-butylamino-1-oxomethyl)phenyl)hexyl)-3-isoquinolinyl carboxamide], the half-inhibitory concentration (IC50) is 11.8 nM.

For the compound `CC(C)(C)NC(=O)c1ccccc1C[C@@H](O)[C@H](Cc1ccccc1)NC(=O)[C@H](CC(N)=O)NC(=O)c1ccccc1` [Example 28, [1S-(1R*, 4R*, 5S*)]-N-(1-(2-amino-2-oxoethyl)-2-oxo-3-aza-4-phenylmethyl-5-hydroxy-6-(2-(1-t-butylamino-1-oxomethyl)phenyl)hexyl)phenyl carboxamide], the 50% inhibitory concentration (IC50) was 12.5 nM.

Regarding `CC(C)(C)NC(=O)c1ccccc1C[C@@H](O)[C@H](Cc1ccccc1)NC(=O)[C@H](CCC(N)=O)NC(=O)c1ccc2ccccc2c1` [Example 56, [1S-(1R*, 4R*, 5S*)]-N-(1-(3-amino-3-oxopropyl) -2-oxo-3-aza-4-phenylmethyl-5-hydroxy-6-(2-(1-t-butylamino-1-oxomethyl)phenyl)hexyl)-2-naphthyl carboxamide], the IC50 was 38.9 nM.

As to `CC(C)[C@H](NC(=O)c1cnc2ccccc2n1)C(=O)N[C@@H](Cc1ccccc1)[C@H](O)Cc1ccccc1C(=O)NC(C)(C)C` [Example 34, [1S-(1R*, 4R*, 5S*)]-N-(1-(1-methylethyl)-2-oxo-3-aza-4-phenylmethyl-5-hydroxy-6-(2-(1-t-butylamino-1-oxomethyl)phenyl)hexyl)-2-quinoxalinyl acetamide], under setting [1], the IC50 was 7.55 nM.

With `CC(C)(C)NC(=O)c1ccccc1C[C@@H](O)[C@H](Cc1ccccc1)NC(=O)[C@H](CC(N)=O)NC(=O)c1cc(Cl)c2ccccc2n1` [Example 53, [1S-(1R*, 4R*, 5S*)]-N-(1-(2-amino-2-oxoethyl)-2-oxo-3-aza-4-phenylmethyl-5-hydroxy-6-(2-(1-t-butylamino-1-oxomethyl)phenyl)hexyl)-4-chloroquinolin-2-yl carboxamide], the half-inhibitory concentration (IC50) is 1.2 nM.

As to `CC(C)(C)NC(=O)c1ccccc1C[C@@H](O)[C@H](Cc1ccccc1)NC(=O)[C@H](CC(N)=O)NC(=O)c1cnc2ccccc2n1` [Example 20, [1S-(1R*, 4R*, 5S*)]-N-(1-(2-amino-2-oxoethyl)-2-oxo-3-aza-4-phenylmethyl-5-hydroxy-6-(2-(1-t-butylamino-1-oxomethyl)phenyl)hexyl)-2-quinoxalinyl carboxamide], the concentration for half-maximal inhibition (IC50) is 1.15 nM.

On to `CC(C)(C)NC(=O)c1ccccc1C[C@@H](O)[C@H](Cc1ccccc1)NC(=O)[C@H](CC(=O)NCc1ccccn1)NC(=O)c1ccc2ccccc2n1` [Example 45, [1S-[1R*, 4R*, 5S*)]-N-(1-(2-(N-2-pyridylmethyl)amino)-2-oxoethyl]-2-oxo-3-aza-4-phenylmethyl-5-hydroxy-6-(2-(1-t-butylamino-1-oxomethyl)phenyl)hexyl)-2quinolinyl carboxamide], for which the 50% inhibitory concentration (IC50) is 1.26 nM.

Regarding `Cc1cc(C)c2ccc(C(=O)N[C@@H](CC(N)=O)C(=O)N[C@@H](Cc3ccccc3)[C@H](O)Cc3ccccc3C(=O)NC(C)(C)C)nc2c1` [Example 63, [1S-(1R*, 4R*, 5S*)]-N-(1-(2-amino-2-oxoethyl)-2-oxo-3-aza-4-phenylmethyl-5-hydroxy-6-(2-(1-t-butylamino-1-oxomethyl)phenyl)hexyl)-5,7-dimethylquinolin-2-yl carboxamide], the concentration for half-maximal inhibition (IC50) is 0.784 nM.

With `CC(C)c1ccc(C(=O)NC(C)(C)C)c(C[C@@H](O)[C@H](Cc2ccccc2)NC(=O)[C@H](CC(N)=O)NC(=O)c2ccc3ccccc3n2)c1` [Example 68, [1S-(1R*, 4R*, 5S,)]-N-(1-(2-amino-2-oxoethyl)-2-oxo-3-aza-4-phenylmethyl-5-hydroxy-6-(2-(1-t-butylamino-1-oxomethyl)-5-isopropylphenyl)hexyl)-2-quinolinyl carboxamide], the half-maximal inhibitory concentration (IC50) is 0.23 nM.
